Read-outs that look alike come from different tables or passages of the source.
Key:
[1] = molecular target: T1, estrogen receptor from the rat uterus (Rattus norvegicus, UniProt P06211); experiment: Estrogen receptor binding, rat uterus cytosol, competition with 3H-estradiol
T1 construct: The preparation of rat uterus cytosol as well as the receptor test with the estrogen-receptor-containing cytosol; from tissue; host or cells: rat uterus cytosol
T1 sequence (P06211 1-600): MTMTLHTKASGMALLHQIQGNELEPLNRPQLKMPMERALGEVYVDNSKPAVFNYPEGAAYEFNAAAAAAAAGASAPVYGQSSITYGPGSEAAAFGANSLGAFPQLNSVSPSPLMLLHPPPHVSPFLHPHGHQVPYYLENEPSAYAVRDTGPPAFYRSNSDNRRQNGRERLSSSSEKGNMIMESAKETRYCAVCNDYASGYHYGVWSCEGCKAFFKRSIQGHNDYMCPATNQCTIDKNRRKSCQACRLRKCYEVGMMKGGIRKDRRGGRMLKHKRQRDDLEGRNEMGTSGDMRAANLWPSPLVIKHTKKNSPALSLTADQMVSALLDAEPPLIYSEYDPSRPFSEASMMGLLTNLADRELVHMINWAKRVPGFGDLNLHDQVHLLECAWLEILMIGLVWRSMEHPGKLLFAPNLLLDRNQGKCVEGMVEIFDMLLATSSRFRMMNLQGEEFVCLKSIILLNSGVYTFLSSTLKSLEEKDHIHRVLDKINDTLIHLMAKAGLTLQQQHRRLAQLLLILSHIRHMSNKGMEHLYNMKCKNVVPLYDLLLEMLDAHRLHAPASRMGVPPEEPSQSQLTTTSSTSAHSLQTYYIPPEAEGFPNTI

[2] = system: estrogen receptor from the rat uterus; experiment: as above
[3] = system: estrogen receptor from the rat prostate; experiment: Estrogen receptor binding, rat prostate cytosol, competition with 3H-estradiol; details: for Rat Prostate ER (RBA): Table 1, 3H-estradiol as ligand
hER β [4] = experiment: Relative binding affinity to hER β (cited from Kuiper et al.); set-up: species or system human; details: Table 2; quotient of the cited RBA values
Source text: In this case, it is assumed that ERβ predominates in the rat prostate over ERα, and ERα predominates in the rat uterus over ERβ.

hER β [5] = details: Table 2; cited from Kuiper et al. (1996), Endocrinology 138: 863-870; cited from earlier work
[6] = system: MCF-7 breast cancer cells; experiment: Cell proliferation assay, estradiol-stimulated MCF-7, crystal violet; format: cell-based; details: Homo sapiens, MCF7, 168 h; concentration 10^-5 M; 7 days; FIG. 1
[7] = relative binding affinity, estradiol = 100

Compound: C[C@]12CC[C@H](O)CC1=CCC1C2CC[C@@]2(C)C1CC[C@@H]2O (stereo partly shown) [5-Andros-ten-diol]
- Rat uterus ER(RBA) [1]: 0.1
- Uterus-ER/Prostata-ER ([2]; Table 2, ratio of rat ER RBA values as headed): 50
- Rat prost. ER(RBA) [3]: 5
- ERβ/ERα (hER β [4]): 3
- hER β RBA (hER β [5]): 17

Compound: CCCCCC[C@H]1C[C@@]2(C)C(C[C@H]3OC(=O)C[C@]32O)C2CCc3cc(O)ccc3C21 (stereo partly drawn) [Compound 1, 3,17β-Dihydroxy-11β-hexyl-19-nor-17α-pregna-1,3,5(10)-triene-21,16α-lactone]
- Rat uterus ER(RBA) ([1]; Table 1, relative binding affinity, estradiol = 100, 3H-estradiol as ligand): 26.2
- Uterus-ER/Prostate-ER ([2]; Table 1, ratio of RBA rat uterus ER to rat prostate ER): 22
- Binding affinity, rat uterus ER compared with rat prostate ER (in words) ([2]; see Table 1): higher binding affinity to the estrogen receptor from the rat uterus than to the estrogen receptor from the rat prostate
- Rat Prostate ER (RBA) [3, 7]: 1.2
- inhibition at 10 µM [6]: 100%

Compound: C[C@]12CCC3c4ccc(O)cc4CCC3C1CC[C@@H]2O (stereo partly shown) [Estradiol]
- Rat Prostate ER (RBA) [3, 7]: 100
- Rat prost. ER(RBA) ([3]; Table 2, relative binding affinity, estradiol = 100): 100

Compound: C[C@]12CC[C@@H]3c4ccc(O)cc4CC[C@H]3[C@@H]1C[C@@H](O)[C@@H]2O [Estriol]
- hER β RBA (hER β [5]): 21
